Results on 2 molecules are retold here after patent US7390523B2, “Method of forming a diffusion barrier layer for implantable devices” (Advanced Cardiovascular Systems Inc., priority 2000, dated 2008).

Data set [1] relates to coronary arteries of a porcine stent injury model. The data set is described as follows: Reduction in restenosis in the porcine coronary artery stent injury model. It is filed as in vivo, Domestic swine. As to conditions: 28-day endpoint; for Percent Diameter Stenosis, angiographic data (QCA): microporous balloon catheter delivery before stenting. The protocol:
Porcine coronary models were used to assess the degree of the inhibition of neointimal formation in the coronary arteries of a porcine stent injury model by Actinomycin D, delivered with a microporous balloon catheter (1×10^6 pores/mm^2 with sizes ranging from 0.2-0.8 micron).
The preclinical animal testing was performed in accordance with the NIH Guide for Care and Use of Laboratory Animals. Domestic swine were utilized to evaluate effect of the drug on the inhibition of the neointimal formation. Each testing procedure, excluding the angiographic analysis at the follow-up endpoints, was conducted using sterile techniques. During the study procedure, the activated clotting time (ACT) was monitored regularly to ensure appropriate anticoagulation. Base line blood samples were collected for each animal before initiation of the procedure. Quantitative coronary angiographic analysis (QCA) and intravascular ultrasound (IVUS) analysis was used for vessel size assessment.
The vessels at the sites of the delivery were denuded by inflation of the PTCA balloons to 1:1 balloon to artery ratio and moving the balloons back and forth 5 times. The drug was delivered to the denuded sites at 3.5 atm (3.61 Kg/sq cm) for 2 minutes using the microporous balloon catheters before stent deployment. The average volume of delivery was about 3.3+/−1.2 ml. Following drug delivery, stents were deployed at the delivery site such that final stent to artery ratio was 1.1:1.
QCA and IVUS analyses were used for stent deployment guidance. Pre-stenting IVUS measurements of the lumen size at the targeted vessel sites were performed for determination of the balloon (size) inflation pressure. Quantitative analysis of the stented coronary arteries to compare pre-stenting, post-stenting, follow-up minimal luminal diameters, stent recoil, and balloon/stent to artery ratio were performed. Following stent implantation and final angiogram, all devices were withdrawn and the wounds closed; the animals were allowed to recover from anesthesia as managed by the attending veterinarian or animal care professionals at the research center.
Upon return to the research laboratory at the 28-day endpoint, angiographic assessments were performed. Coronary artery blood flow was assessed and the stented vessels were evaluated to determine minimal lumen diameter. The animals were euthanized following this procedure at the endpoint. Following euthanasia, the hearts were pressure perfusion fixed with formalin and prepared for histological analysis, encompassing light microscopy, and morphometry. Morphometric analysis of the stented arteries included assessment of the position of the stent struts and determination of vessel/lumen areas, percent (%) stenosis, injury scores, intimal and medial areas and intima/media ratios. Percent stenosis is quantitated by the following equation: 100(IEL area−lumen area)/IEL area
where IEL is the internal elastic lamia.
The control group of animals received delivery of water instead of the drug. The test group of animals received actinomycin D in two different concentration of 10^−5M and 10^−4M. […] FIGS. 5A and 5B illustrate sample pictures of the histology slides of the coronary vessels from the control and the Dose 1 group, respectively.

Data set [2] in a line: 24 hour elution of vinblastine from EVOH coated stents in phosphated saline solution, HPLC analysis. In kind it is physicochemical. As to conditions: for ug Release: Sterilized (electron beam) stent, 5 ml phosphated saline pH 7.4, room temperature; for Total uG Released / uG Release per Hour: Sterilized stent. The protocol: MULTI-LINK® stents were cleaned by placement in an ultrasonic bath of isopropyl alcohol solution for 10 minutes. The stents were dried and plasma cleaned in a plasma chamber. An EVOH solution was made with 1 gram of EVOH and 7 grams of DMSO, making an EVOH:DMSO ratio of 1:7. Vinblastine was added to the 1:7 EVOH:DMSO solution. Vinblastine constituted 2.5% by weight of the total weight of the solution. The solution was vortexed and placed in a tube. The cleaned MULTI-LINK® stents were attached to mandrel wires and dipped into the solution. The coated stents were passed over a hot plate, for about 3-5 seconds, with a temperature setting of about 60° C. The coated stents were cured for 6 hours in an air box then placed in a vacuum oven at 60° C. for 24 hours. The above process was repeated twice, having a total of three layers. The average weight of the coating was 0.00005 gram, with an estimated vinblastine concentration of 12 microgram per stent. Some of the stents were sterilized by electron beam radiation. The sterilized and unsterilized vinblastine coated stents were tested for a 24 hour elution period by placing one sterilized and one unsterilized stent in 5 ml of phosphated saline solution (pH 7.4) at room temperature with rotational motion. The amount of vinblastine eluted was evaluated by High Performance Liquid Chromatography (HPLC) analysis. The results of this test are given below in Tables 4A and 4B and plotted in FIG. 3.

Structures are written as SMILES. Where “and” joins values, the source holds several entries; their conditions need not be identical. Identical values can stand only once. *1 amine or outer side, *2 acyl side, *3 side chain or, on linkers, in order; H or OH if unused. Where a SMILES comes first, the peptide text is derived from it. Bridges are numbered along the chain shown (N, C = ends). Roman numbers before positions name the chains, in order. [ ]: non-standard residue; d: D form. Actinocin(9to1) = Cc1c2oc3c(C)ccc(C(=O)[*:1])c3nc-2c(C(=O)[*:2])c(N)c1=O; NMeV = CN[C@H](C(=O)O)C(C)C; Sar = CNCC(=O)O

`Cc1c2oc3c(C)ccc(C(=O)N[C@@H]4C(=O)N[C@H](C(C)C)C(=O)N5CCC[C@H]5C(=O)N(C)CC(=O)N(C)[C@@H](C(C)C)C(=O)O[C@@H]4C)c3nc-2c(C(=O)N[C@@H]2C(=O)N[C@H](C(C)C)C(=O)N3CCC[C@H]3C(=O)N(C)CC(=O)N(C)[C@@H](C(C)C)C(=O)O[C@@H]2C)c(N)c1=O` [actinomycin D] (I: T[dV]P[Sar][NMeV] / II: T[dV]P[Sar][NMeV]; ester I:1-I:C, II:1-II:C; linker I:N-II:N via Actinocin(9to1)): the “Percent Stenosis (IEL area-lumen area)/IEL area, histomorphometric data” value in data set [1] (DOSE 1 1E−05 M, n = 30) was 51.8%; in data set [1] (DOSE 2 1E−04 M, n = 21), 54.1%. Further, the “Residual Lumen (Lumen area)/IEL area, histomorphometric data” value in data set [1] (DOSE 1 1E−05 M, n = 30) came out at 0.49; in data set [1] (DOSE 2 1E−04 M, n = 21), 0.46. Besides, the “Percent Diameter Stenosis, angiographic data (QCA)” value in data set [1] (DOSE 1 1E−05 M, n = 10) was 36.8%; in data set [1] (DOSE 2 1E−04 M, n = 7), 32.3+/−11.7% and 32.3%.
Turning to `CC[C@]1(O)C[C@@H]2CN(CCc3c([nH]c4ccccc34)[C@@](C(=O)OC)(c3cc4c(cc3OC)N(C)[C@H]3[C@@](O)(C(=O)OC)[C@H](OC(C)=O)[C@]5(CC)C=CCN6CC[C@]43[C@@H]65)C2)C1` [Vinblastine], the “ug Release” value was 0 µg in data set [2] (0 Hours); 2.14 µg in data set [2] (0.5 Hours); 1.7 µg in data set [2] (3 Hours); 0.28 µg in data set [2] (4 Hours); 0.26 µg in data set [2] (6 Hours); 2.05 µg in data set [2] (24 Hours). Moreover, the “Total uG Released” value worked out at 0 uG in data set [2] (0 Hours); 2.14 uG in data set [2] (0.5 Hours); 3.84 uG in data set [2] (3 Hours); 4.12 uG in data set [2] (4 Hours); 4.38 uG in data set [2] (6 Hours); 6.43 uG in data set [2] (24 Hours). For the same molecule, the “uG Release per Hour” value in data set [2] (0 Hours) stood at 0 uG per Hour; in data set [2] (0.5 Hours), 4.28 uG per Hour; in data set [2] (3 Hours) it was 0.68 uG per Hour; in data set [2] (4 Hours) it was 0.28 uG per Hour; in data set [2] (6 Hours) it was 0.13 uG per Hour; in data set [2] (24 Hours), 0.11 uG per Hour. For the same molecule, in data set [2] (sterilized vs unsterilized coated stents, 24 hour elution), the “effect of electron beam radiation procedure on the release of vinblastine from EVOH” value is on record as “does not interfere”.
